Measurements published in the NIST ThermoML archive (doi:10.1016/j.fluid.2018.04.007).

Experiments:
[1] = refractive index (Na D-line) (dimensionless); xn = mol fraction of the nth substance listed; conditions: 101 kPa, Liquid, Standard Abbe refractometry
[2] = relative permittivity at various frequencies (dimensionless); xn = mol fraction of the nth substance listed; conditions: 101 kPa, Liquid, Frequency=1 MHz, Parallel plate capacitor

CCCCCCN [1-hexanamine] + CCCCCO
Conditions | refractive index, 293.15 K | refractive index, 298.15 K | refractive index, 303.15 K | relative permittivity, 293.15 K | relative permittivity, 298.15 K | relative permittivity, 303.15 K
[1], x2 = 0 | 1.41813 | 1.41563 | 1.41324 | – | – | –
[1], x2 = 0.0472 | 1.41838 | 1.41592 | 1.4136 | – | – | –
[1], x2 = 0.1005 | 1.41862 | 1.41622 | 1.41392 | – | – | –
[1], x2 = 0.1648 | 1.41884 | 1.41649 | 1.41424 | – | – | –
[1], x2 = 0.2022 | 1.41896 | 1.4166 | 1.41438 | – | – | –
[1], x2 = 0.3102 | 1.41908 | 1.41679 | 1.41458 | – | – | –
[1], x2 = 0.3982 | 1.41895 | 1.41671 | 1.41451 | – | – | –
[1], x2 = 0.5002 | 1.41846 | 1.41623 | 1.41407 | – | – | –
[1], x2 = 0.6005 | 1.41756 | 1.41543 | 1.41329 | – | – | –
[1], x2 = 0.7122 | 1.41609 | 1.41403 | 1.41193 | – | – | –
[1], x2 = 0.7963 | 1.41463 | 1.41259 | 1.41054 | – | – | –
[1], x2 = 0.8457 | 1.41364 | 1.41164 | 1.40958 | – | – | –
[1], x2 = 0.8982 | 1.41246 | 1.41048 | 1.40844 | – | – | –
[1], x2 = 0.9362 | 1.41153 | 1.40957 | 1.40754 | – | – | –
[2], x2 = 0 | – | – | – | 3.967 | 3.905 | 3.846
[2], x2 = 0.052 | – | – | – | 4.248 | 4.176 | 4.11
[2], x2 = 0.1079 | – | – | – | 4.563 | 4.485 | 4.408
[2], x2 = 0.1601 | – | – | – | 4.876 | 4.785 | 4.701
[2], x2 = 0.2014 | – | – | – | 5.146 | 5.047 | 4.957
[2], x2 = 0.31 | – | – | – | 5.924 | 5.796 | 5.675
[2], x2 = 0.3982 | – | – | – | 6.653 | 6.494 | 6.348
[2], x2 = 0.5031 | – | – | – | 7.689 | 7.486 | 7.298
[2], x2 = 0.6013 | – | – | – | 8.827 | 8.567 | 8.319
[2], x2 = 0.6916 | – | – | – | 10.025 | 9.702 | 9.397
[2], x2 = 0.7952 | – | – | – | 11.649 | 11.246 | 10.864
[2], x2 = 0.8396 | – | – | – | 12.419 | 11.973 | 11.555
[2], x2 = 0.9006 | – | – | – | 13.582 | 13.084 | 12.61
[2], x2 = 0.9431 | – | – | – | 14.457 | 13.913 | 13.397
